Test results reported in ChEMBL document CHEMBL3351435, “New pyrrole derivatives with potent tubulin polymerization inhibiting activity as anticancer agents including hedgehog-dependent cancer” (J Med Chem, 2014).
Activity calls are given as the source filed them. No cut-off for these calls is given here.

Assays:
[1] = Cytotoxicity against human MESSA/DX5 cells assessed as growth inhibition after 72 hrs by CellTitre-Glo assay; assay type: functional, cell-based; conditions: MES-SA/Dx5, 72 h
HeLa [2] = experiment: Cell cycle arrest in human HeLa cells assessed as accumulation at G2/M phase at 100 nM by propidium iodide staining-based flow cytometry; assay type: functional
[3] = Elimination half life in CD-1 mouse at 5 mg/kg, iv; assay type: ADME, organism-based; parameters: dose 5 mg/kg, route intravenous; conditions: in vivo, read-out: beta t1/2
HepG2 [4] = experiment: Cell cycle arrest in human HepG2 cells at 500 to 2000 nM incubated for 24 hrs followed by compound washout measured after 24 hrs; assay type: functional, cell-based
[5] = Cell cycle arrest in human PC3 cells assessed as accumulation at G2/M phase at 500 nM after 24 hrs by propidium iodide staining-based flow cytometry; assay type: functional; conditions: PC-3
K562 = experiment: Cell cycle arrest in human K562 cells assessed as mitotic index at 10 times IC50 (reference value: […] +/- […]%); assay type: functional
HepG2 [6] = experiment: Cell cycle arrest in human HepG2 cells assessed as rounded cells at 500 nM after 24 hrs by propidium iodide staining-based flow cytometry; assay type: functional
[7] = Cytotoxicity against human MESSA cells assessed as growth inhibition after 72 hrs by CellTitre-Glo assay; assay type: functional, cell-based; conditions: MES-SA
RD [8] = experiment: Cytotoxicity against human RD cells assessed as growth inhibition after 48 hrs by MTT method; assay type: functional, cell-based
CYP1A2 = biological target: T1, CYP1A2 (Homo sapiens, UniProt P05177); experiment: Inhibition of human CYP1A2 using furafylline as substrate at 1 uM; assay type: ADME; conditions: probe furafylline
T1 sequence (P05177 whole entry): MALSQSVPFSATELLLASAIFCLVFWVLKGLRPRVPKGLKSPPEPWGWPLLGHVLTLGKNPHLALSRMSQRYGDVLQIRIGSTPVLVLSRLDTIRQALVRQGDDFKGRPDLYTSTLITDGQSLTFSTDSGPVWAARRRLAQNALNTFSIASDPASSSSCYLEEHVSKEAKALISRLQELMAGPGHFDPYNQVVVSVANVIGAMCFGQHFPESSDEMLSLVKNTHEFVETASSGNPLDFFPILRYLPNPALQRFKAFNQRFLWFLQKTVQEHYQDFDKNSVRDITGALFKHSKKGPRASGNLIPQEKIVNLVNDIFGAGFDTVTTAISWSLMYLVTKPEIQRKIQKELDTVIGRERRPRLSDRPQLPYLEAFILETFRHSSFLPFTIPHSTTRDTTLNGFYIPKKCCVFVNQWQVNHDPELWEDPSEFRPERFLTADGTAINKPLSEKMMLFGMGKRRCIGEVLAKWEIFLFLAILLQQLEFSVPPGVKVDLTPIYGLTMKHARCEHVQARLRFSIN

[9] = AUC infinity in CD-1 mouse at 15 mg/kg, po; assay type: ADME, organism-based; parameters: time infinity, dose 15 mg/kg, route oral; conditions: plasma
HeLa [10] = experiment: Induction of apoptosis in human HeLa cells assessed as failure of MT elongation at 20 nM by immunofluorescence analysis; assay type: functional, cell-based
RD [11] = experiment: Induction of apoptosis in human RD cells at 500 to 2000 nM after 48 hrs by annexin-V/propidium iodide staining-based flow cytometry; assay type: functional, cell-based
HeLa [12] = experiment: Cell cycle arrest in human HeLa cells assessed as accumulation at G2/M phase at 20 nM by propidium iodide staining-based flow cytometry; assay type: functional

Q: Which IC50 [1] does the source give for COc1cc(C(=O)c2ccn(-c3cccc(N)c3)c2)cc(OC)c1OC here?
A: 4.6 nM

Q: And the Activity (HeLa [2])?
A: Active

Q: What about the half-life [3] of the same molecule?
A: 1.23 h

Q: What about the Activity (HepG2 [4]) of the same molecule?
A: inactive

Q: And the Activity [5]?
A: Active

Q: What about the Activity (K562) of the same molecule?
A: 60%

Q: What about the Activity (HepG2 [6]) of the same molecule?
A: Active

Q: What about the IC50 [7] of the same molecule?
A: 1.8 nM

Q: And the IC50 (RD [8])?
A: 95.3 nM

Q: And the inhibition at 1 µM (CYP1A2)?
A: 66.8%

Q: And the AUC(0-inf) [9]?
A: 1470 ng·h/mL

Q: What about the Activity (HeLa [10]) of the same molecule?
A: Active

Q: And the Activity (RD [11])?
A: Active

Q: And the Activity (HeLa [12])?
A: Active
